≈ marks a conversion by molar mass, not a printed value. Marks after values point to notes of the source that are not given here.
How the values were obtained:
[1] = test system: OXA-23; details: ref Kaitany et al. [13], cited from earlier work; for Km: 50 mM NaH2PO4, 25 mM NaHCO3, pH 7.4, 25°C; for Ks (competition kinetics with ampicillin as reporter substrate): from IC50 by Cheng-Prusoff
[2] = test system: OXA-24/40; details: ref Kaitany et al. [13], cited from earlier work; for Km: 50 mM NaH2PO4, 25 mM NaHCO3, pH 7.4, 25°C; for Ks (competition kinetics with ampicillin as reporter substrate): from IC50 by Cheng-Prusoff
[3] = target: OXA-225 (OXA-23 P225S) (Acinetobacter baumannii, UniProt Q9L4P2, P225S); test: Steady-state kinetic analysis of β-lactam hydrolysis by OXA-225; format: biochemical; details: for kcat / Km / Ks (competition kinetics with ampicillin as reporter substrate): OXA-225; for Km: 50 mM NaH2PO4, 25 mM NaHCO3, pH 7.4, 25°C; for Ks (competition kinetics with ampicillin as reporter substrate): from IC50 by Cheng-Prusoff
[4] = test system: OXA-160 (OXA-24/40 P227S); format: biochemical, Acinetobacter baumannii; details: for kcat / Km / Ks (competition kinetics with ampicillin as reporter substrate): OXA-160; for Km: 50 mM NaH2PO4, 25 mM NaHCO3, pH 7.4, 25°C; for Ks (competition kinetics with ampicillin as reporter substrate): from IC50 by Cheng-Prusoff
[5] = test system: A. baumannii strain that yielded OXA-160; details: A. baumannii strain from which OXA-160 was derived; cited from earlier work
[6] = conversion of OXA-24/40 to OXA-160

Row | Structure (SMILES) | Km [1] [µM] | kcat [1] [s⁻¹] | Km [2] [µM] | kcat [2] [s⁻¹] | kcat [3] [s⁻¹] | Km [3] [µM] | gain (increase) in kcat/Km from the P→S substitution ([3]; OXA-225 compared to OXA-23) | kcat [4] [s⁻¹] | Km [4] [µM] | gain in kcat/Km from the P→S substitution ([4]; OXA-160 compared to OXA-24/40) | MIC [5] [µg/mL] | hydrolytic activity (in words) [1] | hydrolytic activity (in words) [2] | Ks (competition kinetics with ampicillin as reporter substrate) [3] | Ks (competition kinetics with ampicillin as reporter substrate) [1] | Ks (competition kinetics with ampicillin as reporter substrate) [2] | Ks (competition kinetics with ampicillin as reporter substrate) [4] | increase in kcat/Km [4, 6] [%] | decrease in kcat/Km [4, 6] [%]
1 | CC1(C)S[C@@H]2[C@H](NC(=O)[C@H](N)c3ccccc3)C(=O)N2[C@H]1C(=O)O [Ampicillin, ampicillin] | 82 ± 9 | 460 ± 10 | 180 ± 20 | 480 ± 20 | 150 ± 10 | 12 ± 1 | ~ 2 fold | 93 ± 2 | 13 ± 1 | ~ 3 fold | – | – | – | – | – | – | – | – | –
2 | C[C@H]1[C@H](NC(=O)/C(=N\OC(C)(C)C(=O)O)c2csc(N)n2)C(=O)N1S(=O)(=O)O [Aztreonam, aztreonam] | 2400 | 0.24 ± 0.01 | > 1500 | >0.3 | 0.79 ± 0.03 | 13 ± 2 | – | 2.7 ± 0.2 | – | – | 128 (≈ 294 µM) | – | – | – | – | – | – | – | –
3 | CO/N=C(\C(=O)N[C@@H]1C(=O)N2C(C(=O)O)=C(COC(C)=O)CS[C@H]12)c1csc(N)n1 [Cefotaxime, cefotaxime] | 340 ± 30 | 5.5 ± 0.1 | 750 ± 70 | 0.38 ± 0.01 | 3.2 ± 0.2 | 100 ± 20 | – | 0.41 ± 0.01 | 170 ± 5 | – | – | – | – | – | – | – | – | – | –
4 | CC(C)(O/N=C(\C(=O)N[C@@H]1C(=O)N2C(C(=O)[O-])=C(C[n+]3ccccc3)CS[C@H]12)c1csc(N)n1)C(=O)O [Ceftazidime, ceftazidime] | – | <0.02 | – | <0.02 | 1.4 ± 0.1 | 1400 | – | >0.80 | > 3000 | – | – | no activity | no activity | – | – | – | – | – | –
5 | CO/N=C(\C(=O)N[C@@H]1C(=O)N2C(C(=O)O)=C(CSc3nc(=O)c(=O)[nH]n3C)CS[C@H]12)c1csc(N)n1 [Ceftriaxone, ceftriaxone] | 5.4 ± 0.5 | 0.021 ± 0.001 | 110 ± 10 | 0.035 ± 0.001 | 0.051 ± 0.002 | – | – | 0.24 ± 0.01 | 14 ± 0.8 | – | – | – | – | 0.48 ± 0.05 ^b µM | – | – | – | – | –
6 | C[C@@H](O)[C@H]1C(=O)N2C(C(=O)O)=C(S[C@@H]3CN[C@H](CNS(N)(=O)=O)C3)[C@H](C)[C@H]12 [Doripenem, doripenem] | – | 0.028 ± 0.003 | – | 0.074 ± 0.001 | 0.026 ± 0.002 | – | – | 0.064 ± 0.001 | – | – | – | – | – | 0.027 ± 0.005 ^b µM | 0.018 ± 0.002 ^b µM | 0.024 ± 0.003 ^b µM | 0.014 ± 0.003 ^b µM | 40 | –
7 | C[C@@H](O)[C@H]1C(=O)N2C(C(=O)O)=C(SCCN=CN)C[C@H]12 [Imipenem, imipenem] | – | 0.49 ± 0.01 | – | 2.1 ± 0.1 | 0.39 ± 0.01 | – | – | 0.12 ± 0.01 | – | – | – | – | – | 0.20 ± 0.02 ^b µM | 0.20 ± 0.02 ^b µM | 0.68 ± 0.09 ^b µM | 0.043 ± 0.005 ^b µM | – | 10
8 | CO/N=C(\C(=O)N[C@@H]1C(=O)N2C(C(=O)[O-])=C(C[N+]3(C)CCCC3)CS[C@H]12)c1csc(N)n1 [cefepime] | – | – | – | – | – | – | – | – | – | – | 64 (≈ 133 µM) | – | – | – | – | – | – | – | –
9 | C[C@@H](O)[C@H]1C(=O)N2C(C(=O)O)=C(S[C@@H]3CN[C@H](C(=O)N(C)C)C3)[C@H](C)[C@H]12 [meropenem] | – | – | – | – | – | – | – | – | – | – | 16 (≈ 41.7 µM) | – | – | – | – | – | – | – | –

Reference: PMC4476283 (Biochemistry, 2015)
